pIC50: −log10 of the molar value.
How the values were obtained:
[1] = system: ERCC1 or XPF levels in A549 cells; experiment: Western blot of ERCC1 and XPF protein levels (PLA control); assay type: cell-based, human; details: 2 µM, 24 h
Protocol: page 1: Supplementary Material […] Supplementary Figure 1. ERCC1-XPF mediated cleavage of the stem-loop DNA substrate, in which the FAM signal is quenched, releases the fluorescently tagged octanucleotide. Triplicate measurements of the control (DMSO) and the effect of 10 μM of compounds 4 and 6 on the incision activity is shown. 2 PLA Control Experiments Supplementary Figure 2. A549 cells were seeded in 6-well culture dishes (Thermo Fishes Scientific) at a density of 0.3 X 10^6 cells/well in a final volume of 3 ml. […] The chambers were incubated for 24 h and then washed with PBS and the cells were solubilized with RIPA buffer in the presence of protease inhibitor cocktail (Cell Signaling Technology) plus 2 mM EDTA. […] EpiGentek), XPF (LS- C173159, 1:1000; LifeSpan BioSciences, Seattle, WA) and B-Actin (sc-47778, 1:1000; Santa Cruz) primary antibodies followed by secondary anti-mouse or anti-rabbit secondary HRP-conjugated secondary antibodies. ECL chemiluminescent substrate (Promega) was used to detect the proteins. 3 Cytotoxicity Analysis Supplementary Figure 3. Cytotoxicity assay using colony forming assay 4 HCT-116 Derived XPF Knockout Cells For CRISPR deletion of XPF from HCT-116 cells, the pSpCas9(BB)-2A-GFP (pX458) vector (Addgene plasmid # 48138) was used. The short guide sequence to target XPF exon one was: 5'- [NT] 3' and target XPF exon eight was: 5'- [NT]3'. […]

[2] = system: HCT-116 cells; design: method as in PMID 31369707; details: 2 μM, after 24 hours; cited from earlier work
[3] = biological target: T1, ERCC1-XPF heterodimer in A549 cells (Homo sapiens, UniProt Q92889); design: method as in PMID 33399940; details: A549 cells treated with 20 μM cisplatin and 1 μM inhibitor; cited from earlier work
T1 construct: endogenous in cells; host or cells: A549
T1 sequence (Q92889 1-916): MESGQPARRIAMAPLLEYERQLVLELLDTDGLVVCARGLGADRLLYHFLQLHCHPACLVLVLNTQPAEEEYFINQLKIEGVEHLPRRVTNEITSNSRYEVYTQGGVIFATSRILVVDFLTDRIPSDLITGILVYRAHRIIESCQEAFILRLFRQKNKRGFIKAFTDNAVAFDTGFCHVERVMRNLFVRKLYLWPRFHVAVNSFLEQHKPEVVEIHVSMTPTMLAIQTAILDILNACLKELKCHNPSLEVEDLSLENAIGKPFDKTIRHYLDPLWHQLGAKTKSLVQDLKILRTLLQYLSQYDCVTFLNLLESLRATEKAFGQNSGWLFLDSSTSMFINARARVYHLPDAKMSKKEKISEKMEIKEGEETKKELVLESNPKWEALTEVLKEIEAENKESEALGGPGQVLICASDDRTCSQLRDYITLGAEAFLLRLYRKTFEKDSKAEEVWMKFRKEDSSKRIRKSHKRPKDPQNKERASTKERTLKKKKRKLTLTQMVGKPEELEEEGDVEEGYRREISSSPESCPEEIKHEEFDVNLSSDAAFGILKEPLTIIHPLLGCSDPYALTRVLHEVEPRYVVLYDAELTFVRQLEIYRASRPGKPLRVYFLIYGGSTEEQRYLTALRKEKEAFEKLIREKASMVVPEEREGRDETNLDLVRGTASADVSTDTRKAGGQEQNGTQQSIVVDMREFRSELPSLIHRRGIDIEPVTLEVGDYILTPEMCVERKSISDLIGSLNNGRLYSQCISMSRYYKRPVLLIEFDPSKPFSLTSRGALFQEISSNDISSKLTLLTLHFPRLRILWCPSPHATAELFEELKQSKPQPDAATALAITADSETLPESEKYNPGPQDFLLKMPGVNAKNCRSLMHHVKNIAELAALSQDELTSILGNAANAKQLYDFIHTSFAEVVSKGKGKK

[4] = system: HCT-116 cells; design: method as in PMID 31369707; details: 1.0 μM compound, 4 J/m^2 UVC; cited from earlier work
[5] = system: HCT-116 cells; design: method as in PMID 31369707; details: 1 μM compound, 50 μM cyclophosphamide; cited from earlier work
[6] = design: method as in PMID 31369707; details: cited from earlier work
[7] = design: method as in PMID 31369707; details: cited from earlier work; remark: listed apart in the source
[8] = biological target: CYP2C9 (Homo sapiens, UniProt P11712); design: method as in PMID 31369707; details: read-out: Inhibition of cytochrome P450 (IC50) CYP2C9; cited from earlier work
[9] = biological target: CYP2C19 (Homo sapiens, UniProt P33261); design: method as in PMID 31369707; details: read-out: Inhibition of cytochrome P450 (IC50) CYP2C19; cited from earlier work
[10] = biological target: CYP2D6 (Homo sapiens, UniProt P10635); design: method as in PMID 31369707; details: read-out: Inhibition of cytochrome P450 (IC50) CYP2D6; cited from earlier work
[11] = biological target: CYP3A4-M (Homo sapiens, UniProt P08684); design: method as in PMID 31369707; details: read-out: Inhibition of cytochrome P450 (IC50) CYP3A4-M; cited from earlier work
Sequence of CYP3A4-M (P08684 whole entry): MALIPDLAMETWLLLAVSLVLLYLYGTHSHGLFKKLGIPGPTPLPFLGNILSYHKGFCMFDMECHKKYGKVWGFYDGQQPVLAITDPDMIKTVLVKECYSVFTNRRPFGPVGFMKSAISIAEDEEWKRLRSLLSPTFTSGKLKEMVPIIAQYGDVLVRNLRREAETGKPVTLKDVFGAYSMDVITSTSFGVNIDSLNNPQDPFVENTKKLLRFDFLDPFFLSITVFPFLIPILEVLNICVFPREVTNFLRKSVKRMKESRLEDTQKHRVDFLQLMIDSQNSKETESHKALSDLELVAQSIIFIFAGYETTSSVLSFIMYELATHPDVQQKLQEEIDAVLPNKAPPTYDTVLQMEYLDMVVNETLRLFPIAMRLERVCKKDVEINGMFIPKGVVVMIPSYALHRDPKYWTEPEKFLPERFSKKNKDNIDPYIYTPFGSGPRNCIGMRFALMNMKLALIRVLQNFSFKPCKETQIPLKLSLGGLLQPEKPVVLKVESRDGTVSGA

Sequence of CYP2D6 (P10635 whole entry): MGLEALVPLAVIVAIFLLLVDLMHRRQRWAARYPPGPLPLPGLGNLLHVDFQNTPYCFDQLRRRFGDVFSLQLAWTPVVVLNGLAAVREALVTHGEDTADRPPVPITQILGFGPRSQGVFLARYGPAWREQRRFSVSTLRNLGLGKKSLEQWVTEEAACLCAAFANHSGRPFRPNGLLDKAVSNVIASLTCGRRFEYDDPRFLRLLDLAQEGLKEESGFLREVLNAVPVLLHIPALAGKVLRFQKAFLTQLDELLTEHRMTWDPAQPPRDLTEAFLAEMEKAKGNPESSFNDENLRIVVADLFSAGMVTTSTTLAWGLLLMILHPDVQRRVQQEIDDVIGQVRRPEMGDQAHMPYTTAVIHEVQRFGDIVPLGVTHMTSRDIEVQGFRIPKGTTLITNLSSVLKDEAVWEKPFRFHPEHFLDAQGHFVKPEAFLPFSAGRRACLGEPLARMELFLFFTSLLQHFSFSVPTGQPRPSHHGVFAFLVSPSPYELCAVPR
Sequence of CYP2C9 (P11712 whole entry): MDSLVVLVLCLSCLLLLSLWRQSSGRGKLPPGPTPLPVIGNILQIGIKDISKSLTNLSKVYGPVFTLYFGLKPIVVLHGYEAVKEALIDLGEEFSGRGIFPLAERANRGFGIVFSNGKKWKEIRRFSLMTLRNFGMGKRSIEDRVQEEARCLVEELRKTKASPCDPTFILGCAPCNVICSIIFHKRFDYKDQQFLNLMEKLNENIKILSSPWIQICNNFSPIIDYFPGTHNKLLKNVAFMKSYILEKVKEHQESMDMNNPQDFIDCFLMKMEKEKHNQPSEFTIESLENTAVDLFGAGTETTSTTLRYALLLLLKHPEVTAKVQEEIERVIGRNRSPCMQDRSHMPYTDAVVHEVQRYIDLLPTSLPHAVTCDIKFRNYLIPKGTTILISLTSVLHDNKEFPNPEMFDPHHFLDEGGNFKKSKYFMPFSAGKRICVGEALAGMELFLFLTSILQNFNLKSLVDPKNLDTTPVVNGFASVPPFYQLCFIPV
Sequence of CYP2C19 (P33261 whole entry): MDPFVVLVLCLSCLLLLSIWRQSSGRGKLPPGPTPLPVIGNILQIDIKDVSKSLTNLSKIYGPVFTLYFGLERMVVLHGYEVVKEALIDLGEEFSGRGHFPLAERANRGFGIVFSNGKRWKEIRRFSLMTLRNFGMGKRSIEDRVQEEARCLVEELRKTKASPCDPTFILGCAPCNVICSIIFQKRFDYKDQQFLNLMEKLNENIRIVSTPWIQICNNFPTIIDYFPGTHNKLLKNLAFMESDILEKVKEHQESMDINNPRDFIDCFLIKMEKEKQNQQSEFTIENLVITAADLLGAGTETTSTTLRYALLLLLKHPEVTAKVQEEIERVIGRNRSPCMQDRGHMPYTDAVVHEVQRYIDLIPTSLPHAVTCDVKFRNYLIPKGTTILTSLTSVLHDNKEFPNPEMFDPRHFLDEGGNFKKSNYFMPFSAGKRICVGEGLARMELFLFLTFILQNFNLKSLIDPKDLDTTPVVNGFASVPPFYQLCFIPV

In the case of COc1ccc2nc3cc(Cl)ccc3c(Nc3ccc(O)c(CN4CCN(CCN(C)C)CC4)c3)c2c1 [Compound 4], the “levels of ERCC1 or XPF vs untreated cells” value [1] is given as “no significant differences”, the CPD removal [2] is given as 60% and the “PLA: inhibition of the interaction between ERCC1 and XPF (in words)” value [3] is given as “clear inhibition of the interaction between ERCC1 and XPF”. For the same molecule, the “cell survival after UVC” value [4] was ~ 50%, the “cell survival with cyclophosphamide” value [5] was “about 75%” and the “Metabolic stability in human liver microsomes (clearance)” value [6] was 44.0 (mL/min/kg). For the same molecule, the “Metabolic stability in cryopreserved human hepatocytes (clearance)” value [7] was 48.8 mL/min/kg, the “Metabolic stability in cryopreserved human hepatocytes T1/2” value [7] was 1.32 h and the pIC50 [8] was under 4.30. The pIC50 [9] was under 4.30, the pIC50 [10] was 4.80 and the pIC50 [11] was 4.43.

From publication PMC8968952, “Modulation of ERCC1-XPF Heterodimerization Inhibition via Structural Modification of Small Molecule Inhibitor Side-Chains” (Frontiers in Oncology, 2022)
